Results published in patent US20140309265A1, “MACROCYCLIC COMPOUNDS FOR INHIBITION OF INHIBITORS OF APOPTOSIS” (Ensemble Therapeutics, priority 2011, published 2014).
Like-named read-outs stand apart in the source and are kept apart here.

What was measured:
Type in all cases: binding
[1] = biological target: N-His-Tb-BIR3(262-352, cIAP1) (Homo sapiens, UniProt Q13490); assay: cIAP1-BIR3 SMAC Peptide Fluorescence Polarization Assay (FPA); settings: Table 3
Procedure: C. cIAP1-BIR3SMAC Peptide Fluorescence Polarization Assay (FPA)
Assays were performed in black, round-bottom, 96-well plates. The final assay volume was 30 μL prepared from additions of N-His-Tb-BIR3(262-352, cIAP1), fluoresceinated modified SMAC peptide, and test compounds in assay buffer consisting of 20 mM Sodium Phosphate, 1 mM EDTA, 50 mM NaCl, and 0.05% Pluronic F68. The reaction was incubated at room temperature for 60 minutes and fluorescence polarization of the reaction was detected on the LJL Plate Reader. […] The final concentration of reagents in the assay was 36.1 nM N-His-Tb-BIR3(262-352, cIAP1), 1.4 nM fluoresceinated modified SMAC peptide, and 1% DMSO. […] Compounds were dissolved at 10 mM in dimethylsulfoxide (DMSO) and evaluated at eight concentrations. IC50 values were derived by non-linear regression analysis.

[2] = biological target: T1, XIAP His-BIR2 (124-240/C202A/C213G) (Homo sapiens, UniProt P98170, C202A/C213G); assay: XIAP-BIR2/SMAC Peptide AlphaScreen Assay
T1 construct: additions of His-BIR2 (124-240/C202A/C213G), Biotinylated SMAC peptide
T1 sequence (P98170 124-240 C202A/C213G): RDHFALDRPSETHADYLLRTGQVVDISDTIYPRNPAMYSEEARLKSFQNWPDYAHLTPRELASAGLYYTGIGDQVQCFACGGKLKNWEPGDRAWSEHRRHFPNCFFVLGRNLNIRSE
Procedure: A. XIAP-BIR2/SMAC Peptide AlphaScreen Assay Assays were performed in white, flat-bottom, 384-well ProxiPlates (Perkin Elmer). […] The reaction was incubated at room temperature for 60 minutes. After 60 minutes, 2.5 μL of Alphascreen detection reagent (Perkin Elmer) was added to the reaction mixture and incubated at room temperature in the dark for 120 minutes. The Alphascreen signal generated by the reaction was detected on the Envision Plate Reader. […] Compounds were dissolved at 10 mM in dimethylsulfoxide (DMSO) and evaluated at eleven concentrations. IC50 values were derived by non-linear regression analysis.

[3] = biological target: N-His-Tb-BIR3(241-356, XIAP) (Homo sapiens, UniProt P98170); assay: XIAP-BIR3 SMAC Peptide Fluorescence Polarization Assay (FPA)
N-His-Tb-BIR3(241-356, XIAP), sequence (P98170 241-356): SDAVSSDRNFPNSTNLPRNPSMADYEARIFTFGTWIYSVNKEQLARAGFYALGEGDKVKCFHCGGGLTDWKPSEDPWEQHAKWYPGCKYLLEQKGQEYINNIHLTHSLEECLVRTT

His-BIR3 (241-356, XIAP) = biological target: T2, His-BIR3 (241-356, XIAP) (Homo sapiens, UniProt P98170); assay: XIAP-BIR3/SMAC Homogeneous Time Resolved Fluorescence (HTRF) Assay; settings: Table 4
T2 construct: additions of His-BIR3 (241-356, XIAP), fluorescein labeled SMAC peptide
T2 sequence (P98170 241-356): as above

[4] = biological target: T3, His-BIR2-3 (125-356, C202A/C213G, XIAP) (Homo sapiens, UniProt P98170, C202A/C213G); assay: XIAP-BIR2-3 Dimeric SMAC Peptide Homogeneous Time Resolved Fluorescence (HTRF) Assay; settings: XIAP BIR2-3, HTRF, Table 4
T3 construct: additions of His-BIR2-3 (125-356, C202A/C213G, XIAP), fluorescein labeled dimeric SMAC peptide
T3 sequence (P98170 125-356 C202A/C213G): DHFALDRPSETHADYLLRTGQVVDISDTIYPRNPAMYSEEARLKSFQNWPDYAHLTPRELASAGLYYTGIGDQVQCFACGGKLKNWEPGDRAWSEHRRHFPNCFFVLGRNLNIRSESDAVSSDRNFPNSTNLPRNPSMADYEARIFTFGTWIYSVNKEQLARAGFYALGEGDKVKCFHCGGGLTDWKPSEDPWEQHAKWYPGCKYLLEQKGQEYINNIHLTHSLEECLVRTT

[5] = XIAP BIR2, AlphaScreen, Table 2, read-out: BIR2 IC50
[6] = XIAP BIR2, Alphascreen, Table 4, read-out: BIR2 Alpha Screen IC50

N-His-Tb-BIR3(262-352, cIAP1), sequence (Q13490 262-352): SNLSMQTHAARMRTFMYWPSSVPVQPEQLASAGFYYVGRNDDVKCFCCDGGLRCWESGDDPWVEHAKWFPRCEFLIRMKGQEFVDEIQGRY

Compound `CN[C@@H](C)C(=O)N[C@H](C(=O)N1C[C@@H]2C[C@H]1C(=O)N[C@@H](Cc1ccc3ccccc3c1)C(=O)N[C@H](C(=O)O)Cc1ccc(cc1)OCc1cn(nn1)[C@H]1C[C@@H](C(=O)N[C@@H](Cc3ccc4ccccc4c3)C(=O)N[C@H](C(=O)O)Cc3ccc(cc3)OCc3cn2nn3)N(C(=O)[C@@H](NC(=O)[C@H](C)NC)C(C)C)C1)C(C)C` [Compound 110] has an IC50 [1] of under 50 nM, an IC50 [2, 5] of under 2000 nM and an IC50 [3] of under 50 nM.

`CN[C@@H](C)C(=O)N[C@H](C(=O)N1C[C@@H]2C[C@H]1C(=O)N[C@@H](Cc1cccc3ccccc13)C(=O)N[C@H](C(=O)O)Cc1ccc(cc1)COc1cn(nn1)[C@H]1C[C@@H](C(=O)N[C@@H](Cc3cccc4ccccc34)C(=O)N[C@H](C(=O)O)Cc3ccc(cc3)OCc3cn2nn3)N(C(=O)[C@@H](NC(=O)[C@H](C)NC)C(C)C)C1)C(C)C` [Compound 111] showed an IC50 [1] of under 50 nM, an IC50 [2, 5] of under 2000 nM and an IC50 [3] of under 50 nM.

With `CN[C@@H](C)C(=O)N[C@H](C(=O)N1C[C@@H]2C[C@H]1C(=O)N[C@@H](Cc1ccccc1)C(=O)N[C@H](C(=O)O)Cc1ccc(cc1)OCCCn1cc(nn1)-c1ccc(cc1)-c1cn(nn1)[C@H]1C[C@@H](C(=O)N[C@@H](Cc3ccccc3)C(=O)N[C@H](C(=O)O)Cc3ccc(cc3)OCCCn3cc(nn3)-c3ccc(cc3)-c3cn2nn3)N(C(=O)[C@@H](NC(=O)[C@H](C)NC)C(C)C)C1)C(C)C` [Compound 137] the IC50 [1] was under 50 nM, the IC50 [2, 5] was under 2000 nM and the IC50 [3] was under 50 nM.

`CN[C@@H](C)C(=O)N[C@H](C(=O)N1C[C@@H]2C[C@H]1C(=O)N[C@@H](Cc1ccc3ccccc3c1)C(=O)N[C@H](C(=O)O)Cc1ccc(cc1)OCc1cn(nn1)[C@H]1C[C@@H](C(=O)N[C@@H](Cc3ccc4ccccc4c3)C(=O)N[C@H](C(=O)NS(=O)(=O)C3CC3)Cc3ccc(cc3)OCc3cn2nn3)N(C(=O)[C@@H](NC(=O)[C@H](C)NC)C(C)(C)C)C1)C(C)(C)C` [Compound 147] gave an IC50 [2, 6] of under 2000 nM, an IC50 (His-BIR3 (241-356, XIAP)) of under 10 nM and an IC50 [4] of 1 to 10 nM. For the same compound, the IC50 [3] was under 50 nM.

In the case of `CN[C@@H](C)C(=O)N[C@H](C(=O)N1C[C@@H]2C[C@H]1C(=O)N[C@@H](Cc1ccc3ccccc3c1)C(=O)N[C@H](C(=O)NS(=O)(=O)C1CC1)Cc1ccc(cc1)OCc1cn(nn1)[C@H]1C[C@@H](C(=O)N[C@@H](Cc3ccc4ccccc4c3)C(=O)N[C@H](C(=O)NS(=O)(=O)C3CC3)Cc3ccc(cc3)OCc3cn2nn3)N(C(=O)[C@@H](NC(=O)[C@H](C)NC)C(C)(C)C)C1)C(C)(C)C` [Compound 148], the IC50 [2, 6] is reported as under 2000 nM, the IC50 (His-BIR3 (241-356, XIAP)) is reported as under 10 nM and the IC50 [4] is reported as at most 1 nM. It also gave an IC50 [3] of under 50 nM.

In the case of `CN[C@@H](C)C(=O)N[C@H](C(=O)N1C[C@@H]2C[C@H]1C(=O)N[C@@H](Cc1ccc3ccccc3c1)C(=O)N[C@H](C(=O)O)Cc1ccc(cc1)OCc1cn(nn1)[C@H]1C[C@@H](C(=O)N[C@@H](Cc3ccc4ccccc4c3)C(=O)N[C@H](C(=O)NS(C)(=O)=O)Cc3ccc(cc3)OCc3cn2nn3)N(C(=O)[C@@H](NC(=O)[C@H](C)NC)C(C)(C)C)C1)C(C)(C)C` [Compound 1002], the IC50 [2, 6] is reported as under 2000 nM and the IC50 [3] is reported as under 50 nM.

Work on `CN[C@@H](C)C(=O)N[C@H](C(=O)N1C[C@@H]2C[C@H]1C(=O)N[C@@H](Cc1ccc3ccccc3c1)C(=O)N[C@H](C(=O)NS(=O)(=O)c1ccccc1)Cc1ccc(cc1)OCc1cn(nn1)[C@H]1C[C@@H](C(=O)N[C@@H](Cc3ccc4ccccc4c3)C(=O)N[C@H](C(=O)NS(=O)(=O)c3ccccc3)Cc3ccc(cc3)OCc3cn2nn3)N(C(=O)[C@@H](NC(=O)[C@H](C)NC)C(C)(C)C)C1)C(C)(C)C` [Compound 1003] yielded an IC50 [2, 6] of under 2000 nM and an IC50 [3] of 50 to 100 nM.

`CN[C@@H](C)C(=O)N[C@H](C(=O)N1C[C@@H]2C[C@H]1C(=O)N[C@@H](Cc1ccc3ccccc3c1)C(=O)N[C@H](C(=O)NS(C)(=O)=O)Cc1ccc(cc1)OCc1cn(nn1)[C@H]1C[C@@H](C(=O)N[C@@H](Cc3ccc4ccccc4c3)C(=O)N[C@H](C(=O)NS(C)(=O)=O)Cc3ccc(cc3)OCc3cn2nn3)N(C(=O)[C@@H](NC(=O)[C@H](C)NC)C(C)(C)C)C1)C(C)(C)C` [Compound 1004] showed an IC50 [2, 6] of under 2000 nM and an IC50 [3] of 50 to 100 nM.

Work on `CCS(=O)(=O)NC(=O)[C@@H]1Cc2ccc(cc2)OCc2cn(nn2)[C@H]2C[C@@H](C(=O)N[C@@H](Cc3ccc4ccccc4c3)C(=O)N[C@H](C(=O)NS(=O)(=O)CC)Cc3ccc(cc3)OCc3cn(nn3)[C@H]3C[C@@H](C(=O)N[C@@H](Cc4ccc5ccccc5c4)C(=O)N1)N(C(=O)[C@@H](NC(=O)[C@H](C)NC)C(C)(C)C)C3)N(C(=O)[C@@H](NC(=O)[C@H](C)NC)C(C)(C)C)C2` [Compound 1005] yielded an IC50 [2, 6] of under 2000 nM and an IC50 [3] of under 50 nM.

With `CN[C@@H](C)C(=O)N[C@H](C(=O)N1C[C@@H]2C[C@H]1C(=O)N[C@@H](Cc1ccc3ccccc3c1)C(=O)N[C@H](C(=O)NS(=O)(=O)C(F)(F)F)Cc1ccc(cc1)OCc1cn(nn1)[C@H]1C[C@@H](C(=O)N[C@@H](Cc3ccc4ccccc4c3)C(=O)N[C@H](C(=O)NS(=O)(=O)C(F)(F)F)Cc3ccc(cc3)OCc3cn2nn3)N(C(=O)[C@@H](NC(=O)[C@H](C)NC)C(C)(C)C)C1)C(C)(C)C` [Compound 1007] the IC50 [2, 6] was 2000 to 12000 nM and the IC50 [3] was 50 to 100 nM.
